Values quoted from earlier work as cited in patent publication US20200397720A1, “METHOD AND FORMULATION FOR TREATMENT OF WOUNDS BY NEW TISSUE REGENERATION WITH REDUCED TRAUMA AND SCAR TISSUE FORMATION” (priority 2019, published 2020).

Test system: inflammatory cytokines, including IL-6 and TNF-α
Conditions: high fat diet-induced atherosclerosis in rabbits

In the case of `CC1=C(/C=C/C(C)=C/C=C/C(C)=C/C(=O)O)C(C)(C)CCC1` [ATRA, all-trans retinoic acid], the “effect on inflammatory cytokines, including IL-6 and TNF-α” value is listed as “lowering inflammatory cytokines”.
